From patent publication US7317020B2, “Isolation and structure of Cribrostatin 6” (Arizona Board of Regents, a body corporate of the State of …, priority 2003, dated 2008)
Converted amounts (≈) assume the structure as drawn.

Legend:
[1] = system: bacteria; conditions: in words; Pettit et al., J. Nat. Prod. 2000; cited from earlier work
[2] = system: fungi; conditions: in words; Pettit et al., J. Nat. Prod. 2000; cited from earlier work
[3] = system: BXPC-3; assay: Cancer cell growth inhibition, human cancer cell line panel; assay type: cell-based; conditions: BXPC-3, Pancreas-adenocarcinoma, read-out: Inhibitory Activity (GI50)
[4] = system: MCF-7; assay: as above; assay type: cell-based; conditions: MCF7, MCF-7, Breast-adenocarcinoma, read-out: Inhibitory Activity (GI50)
[5] = system: SF-268; assay: as above; assay type: cell-based; conditions: SF-268, CNS Glioblastoma, read-out: Inhibitory Activity (GI50)
[6] = system: NCI-H460; assay: as above; assay type: cell-based; conditions: NCI-H460, Lung-NSC, read-out: Inhibitory Activity (GI50)
[7] = system: KM20L2; assay: as above; assay type: cell-based; conditions: KM-20L2, KM20L2, Colon-adenocarcinoma, read-out: Inhibitory Activity (GI50)
[8] = system: DU-145; assay: as above; assay type: cell-based; conditions: DU-145, Prostate, read-out: Inhibitory Activity (GI50)
[9] = system: P388 lymphocytic leukemia; assay: Cancer cell growth inhibition, murine P388 lymphocytic leukemia; assay type: cell-based, mouse
From the text: Earlier we had observed a number of biologically active blue to black colored fractions arising during P388 lymphocytic leukemia guided separations of a 195 g dichloromethane-soluble portion of the extract obtained from 350 kg (wet wt.) of Cribrochalina sp. The cancer cell growth (P-388) inhibitory dark-colored fractions were finally separated by a successive series of gel permeation and partition chromatographic techniques on Sephadex LH-20. That sequence was followed by high-speed countercurrent distribution using an Ito Coil-Planet centrifuge to afford 88 mg of a dark-blue constituent (P388 ED50 0.3 μg/ml), designated cribrostatin 6 (3). Owing to difficulties in unequivocally deducing the structure of this interesting substance based on spectral evidence, attempts were made at various times over a ten year period to reach a correct solution and/or to produce crystals suitable for X-ray structure determination. We were eventually pleased to find that cribrostatin 6 (3) would crystallize from acetone following long cold storage of the solution. To follow is a summary of the spectral and X-ray crystallographic interpretation that completed a correct structural assignment for cribrostatin 6 (3).
Isolation of Cribrostatin 6 (1). The blue marine sponge Cribrochalina sp. was collected and extracted as known to one of skill in the art, as described in Pettit, G., et al., J. Nat. Prod. […]

[10] = system: Bacillus subtilis (clinical isolate); assay: Broth microdilution susceptibility assay; assay type: cell-based; conditions: read-out: Minimum Inhibitory Concentration
From the text: (§1) Compounds were screened against bacteria and fungi according to established broth microdilution susceptibility assays, pursuant to the National Committee for Clinical Laboratory Standards, Methods for Dilution Antimicrobial Susceptibility Tests for Bacteria that Grow Aerobically, Approved Standard M7-A4, Wayne, Pa.: NCCLS, 1997, and the National Conmnittee for Clinical Laboratory Standards, Reference Method for Broth Dilution Antifungal Susceptibility Testing of Yeasts, Approved Standard M27-A, Wayne, Pa.: NCCLS, 1997. The minimum inhibitory concentration was defined as the lowest concentration of compound that inhibited all visible growth of the test organism (optically clear). Assays were repeated on separate days.

[11] = system: Candida albicans (ATCC 90028); assay: Broth microdilution susceptibility assay; assay type: cell-based; conditions: ATCC90028, read-out: Minimum Inhibitory Concentration
From the text: as §1

[12] = system: Cryptococcus neoformans (ATCC 90112); assay: Broth microdilution susceptibility assay; assay type: cell-based; conditions: ATCC90112, read-out: Minimum Inhibitory Concentration
From the text: as §1

[13] = system: Enterobacter cloacae (ATCC 13047); assay: Broth microdilution susceptibility assay; assay type: cell-based; conditions: ATCC13047, read-out: Minimum Inhibitory Concentration
From the text: as §1

[14] = system: Enterococcus faecalis (ATCC 29212); assay: Broth microdilution susceptibility assay; assay type: cell-based; conditions: ATCC29212, read-out: Minimum Inhibitory Concentration
From the text: as §1

[15] = system: Escherichia coli (ATCC 25922); assay: Broth microdilution susceptibility assay; assay type: cell-based; conditions: ATCC25922, read-out: Minimum Inhibitory Concentration
From the text: as §1

[16] = system: Group A Streptococcus (clinical isolate); assay: Broth microdilution susceptibility assay; assay type: cell-based; conditions: read-out: Minimum Inhibitory Concentration
From the text: as §1

[17] = system: Invasive S. pneumoniae (clinical isolate); assay: Broth microdilution susceptibility assay; assay type: cell-based; conditions: Streptococcus pneumoniae, read-out: Minimum Inhibitory Concentration
From the text: as §1

[18] = system: Methicillin-resistant S. aureus (clinical isolate); assay: Broth microdilution susceptibility assay; assay type: cell-based; conditions: Staphylococcus aureus, read-out: Minimum Inhibitory Concentration
From the text: as §1

[19] = system: Micrococcus luteus (Presque Isle 456); assay: Broth microdilution susceptibility assay; assay type: cell-based; conditions: read-out: Minimum Inhibitory Concentration
From the text: as §1

[20] = system: Neisseria gonorrhoeae (ATCC 49226); assay: Broth microdilution susceptibility assay; assay type: cell-based; conditions: ATCC49226, read-out: Minimum Inhibitory Concentration
From the text: as §1

[21] = system: Penicillin-resistant S. pneumoniae (clinical isolate); assay: Broth microdilution susceptibility assay; assay type: cell-based; conditions: Streptococcus pneumoniae, read-out: Minimum Inhibitory Concentration
From the text: as §1

[22] = system: Staphylococcus aureus (ATCC 29213); assay: Broth microdilution susceptibility assay; assay type: cell-based; conditions: ATCC29213, read-out: Minimum Inhibitory Concentration
From the text: as §1

[23] = system: Stenotrophomonas maltophilia (ATCC 13637); assay: Broth microdilution susceptibility assay; assay type: cell-based; conditions: ATCC13637, read-out: Minimum Inhibitory Concentration
From the text: as §1

[24] = system: Streptococcus pneumoniae (ATCC 6303); assay: Broth microdilution susceptibility assay; assay type: cell-based; conditions: ATCC6303, read-out: Minimum Inhibitory Concentration
From the text: as §1

[25] = system: Vancomycin-resistant E. faecalis (clinical isolate); assay: Broth microdilution susceptibility assay; assay type: cell-based; conditions: Enterococcus faecalis, read-out: Minimum Inhibitory Concentration
From the text: as §1

CC1=C(N)C(=O)c2c(ccnc2C)C1=O [Cribrostatin 1]
antibacterial activity [1]: antibacterial | antifungal activity [2]: not antifungal

C/C=C(/C)C(=O)OCc1nccc2c1C(=O)C(N)=C(C)C2=O [Cribrostatin 3]
antibacterial activity [1]: antibacterial | antifungal activity [2]: not antifungal

CCOC1=C(C)C(=O)c2ccn3c(C)ncc3c2C1=O [Cribrostatin 6, 9-ethoxy-3,8-dimethyl-imidazo[5,1-a]isoquinoline-7, 10-dione]
GI50 [3]: > 1 µg/mL | GI50 [4]: 0.21 µg/mL (≈ 0.777 µM) | GI50 [5]: 0.24 µg/mL (≈ 0.888 µM) | GI50 [6]: > 1 µg/mL | GI50 [7]: > 1 µg/mL | GI50 [8]: 0.38 µg/mL (≈ 1.41 µM) | GI50 ([9]; P388, Mouse Leukemia, read-out: Inhibitory Activity (GI50)): 0.29 µg/mL (≈ 1.07 µM) | P388 ED50 ([9]; murine P-388 lymphocytic leukemia cell line): 0.3 µg/mL | MIC [10]: 2 µg/mL (≈ 7.4 µM) | MIC [11]: 64 µg/mL (≈ 237 µM) | MIC [12]: 2 µg/mL (≈ 7.4 µM) | MIC [13]: > 64 µg/mL | MIC [14]: 32 µg/mL (≈ 118 µM) | MIC [15]: > 64 µg/mL | MIC [16]: 16 µg/mL (≈ 59.2 µM) | MIC [17]: 1 µg/mL (≈ 3.7 µM) | MIC [18]: 16 µg/mL (≈ 59.2 µM) | MIC [19]: 16 µg/mL (≈ 59.2 µM) | MIC [20]: 0.0625 µg/mL (≈ 0.231 µM) | MIC [21]: 2 µg/mL (≈ 7.4 µM) | MIC [22]: 16 µg/mL (≈ 59.2 µM) | MIC [23]: > 64 µg/mL | MIC [24]: 0.5 µg/mL (≈ 1.85 µM) | MIC [25]: 32 µg/mL (≈ 118 µM)
